pIC50: −log10 of the molar value. Several values for one entry are separate records, joined by “and”; a condition that tells them apart may be missing. Identical values can stand only once.
Tested on: MDA-MB-231 complex spheroid viability
Experiment: Anticancer human tumor MDA-MB-231/ATCC cell line growth inhibition;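 further: drug exposure lasted 7 days starting on day 3 of spheroid growth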
Details: for pIC50: curve of first compound; for viability, T/C: stronger effect = lower value
Procedure, shortened: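 Complex spheroids of tumor cells with HUVEC and human MSCs, exposed to iadademstat combined with other agents. Each agent tested in half-log steps from near clinical Cmax (else 10 microM top), DMSO ≤0.25%.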

[1] = second compound 0.1 µM, first compound 0.00316 µM
[2] = second compound 0.1 µM, first compound 0.01 µM
[3] = second compound 0.1 µM, first compound 0.0316 µM
[4] = second compound 0.1 µM, first compound 0.1 µM
[5] = second compound 0.1 µM, first compound 0.316 µM
[6] = second compound 0.1 µM, first compound 1 µM
[7] = second compound 0.316 µM, first compound 0.00316 µM
[8] = second compound 0.316 µM, first compound 0.01 µM
[9] = second compound 0.316 µM, first compound 0.0316 µM
[10] = second compound 0.316 µM, first compound 0.1 µM
[11] = second compound 0.316 µM, first compound 0.316 µM
[12] = second compound 0.316 µM, first compound 1 µM
[13] = second compound 1 µM, first compound 0.00316 µM
[14] = second compound 1 µM, first compound 0.01 µM
[15] = second compound 1 µM, first compound 0.0316 µM
[16] = second compound 1 µM, first compound 0.1 µM
[17] = second compound 1 µM, first compound 0.316 µM
[18] = second compound 1 µM, first compound 1 µM
[19] = second compound 3.16 µM, first compound 0.00316 µM
[20] = second compound 3.16 µM, first compound 0.01 µM
[21] = second compound 3.16 µM, first compound 0.0316 µM
[22] = second compound 3.16 µM, first compound 0.1 µM
[23] = second compound 3.16 µM, first compound 0.316 µM
[24] = second compound 3.16 µM, first compound 1 µM
[25] = second compound 10 µM, first compound 0.00316 µM
[26] = second compound 10 µM, first compound 0.01 µM
[27] = second compound 10 µM, first compound 0.0316 µM
[28] = second compound 10 µM, first compound 0.1 µM
[29] = second compound 10 µM, first compound 0.316 µM
[30] = second compound 10 µM, first compound 1 µM

Molecule `Nc1ncn(C2CC(O)C(CO)O2)c(=O)n1` (stereo unspecified) + NC1CC1c1ccc(-c2cccc(O)c2)cc1 has a pIC50 (second compound 0.1 µM) of under 6.00, a pIC50 (second compound 0.316 µM) of 6.25 and a pIC50 (second compound 1 µM) of 6.74. For the same molecule, the pIC50 (second compound 3.16 µM) was 6.60, the pIC50 (second compound 10 µM) was over 8.50 and the viability, T/C [1] was 74.5%. The viability, T/C [2] was 75.8%, the viability, T/C [3] was 76.2% and the viability, T/C [4] was 66.8%. It also gave a viability, T/C [5] of 55%, a viability, T/C [6] of 56% and a viability, T/C [7] of 70.4%. For the same molecule, the viability, T/C [8] was 63.5%, the viability, T/C [9] was 61.4% and the viability, T/C [10] was 51.8%. The viability, T/C [11] was 50.9%, the viability, T/C [12] was 49.6% and the viability, T/C [13] was 60.5%. It also gave a viability, T/C [14] of 58.4%, a viability, T/C [15] of 57.3% and a viability, T/C [16] of 50.4%. The viability, T/C [17] was 47.7%, the viability, T/C [18] was 45% and the viability, T/C [19] was 70.2%. For the same molecule, the viability, T/C [20] was 63.4%, the viability, T/C [21] was 60.6% and the viability, T/C [22] was 53.3%. For the same molecule, the viability, T/C [23] was 49.6%, the viability, T/C [24] was 43.7% and the viability, T/C [25] was 49.7%. It also gave a viability, T/C [26] of 45.3%, a viability, T/C [27] of 43.9% and a viability, T/C [28] of 41.5%. The viability, T/C [29] was 40.3% and the viability, T/C [30] was 37.1%.
`CC1COCCN1c1cc(-c2ccnn2C)c2ccnc(-c3ccn[nH]3)c2n1` (stereo unspecified) was tested, and the viability, T/C (compound 0.00316 µM) was 92.8% and 41%, the viability, T/C (compound 0.01 µM) was 80.5% and 30.1% and the viability, T/C (compound 0.0316 µM) was 51.5% and 19.3%. For the same molecule, the viability, T/C (compound 0.1 µM) was 35.9% and 18.3%, the viability, T/C (compound 0.316 µM) was 31.8% and 18.9% and the viability, T/C (compound 1 µM) was 28.6% and 22.4%.
Work on `CC1COCCN1c1cc(-c2ccnn2C)c2ccnc(-c3ccn[nH]3)c2n1` (stereo unspecified) + NC1CCC(NC2CC2c2ccccc2)CC1 yielded a pIC50 (second compound 0.1 µM) of 7.51, a pIC50 (second compound 0.316 µM) of 7.46 and a pIC50 (second compound 1 µM) of 7.59. For the same molecule, the pIC50 (second compound 3.16 µM) was 7.78, the pIC50 (second compound 10 µM) was 7.97 and the viability, T/C [1] was 102%. The viability, T/C [2] was 77.8%, the viability, T/C [3] was 50.4% and the viability, T/C [4] was 33.3%. It also gave a viability, T/C [5] of 28.4%, a viability, T/C [6] of 28.8% and a viability, T/C [7] of 93.7%. It also gave a viability, T/C [8] of 73.8%, a viability, T/C [9] of 50.7% and a viability, T/C [10] of 37.4%. The viability, T/C [11] was 29.3%, the viability, T/C [12] was 28.9% and the viability, T/C [13] was 90%. For the same molecule, the viability, T/C [14] was 69.4%, the viability, T/C [15] was 45.8% and the viability, T/C [16] was 34.5%. For the same molecule, the viability, T/C [17] was 27.4%, the viability, T/C [18] was 30.7% and the viability, T/C [19] was 72.8%. The viability, T/C [20] was 57.4%, the viability, T/C [21] was 40.2% and the viability, T/C [22] was 33%. It also gave a viability, T/C [23] of 29.3%, a viability, T/C [24] of 30.7% and a viability, T/C [25] of 56.9%. The viability, T/C [26] was 51%, the viability, T/C [27] was 32.8% and the viability, T/C [28] was 30%. It also gave a viability, T/C [29] of 28% and a viability, T/C [30] of 28.9%.
Work on `CCN(c1cc(-c2ccc(CN3CCOCC3)cc2)cc(C(=O)NCc2c(C)cc(C)[nH]c2=O)c1C)C1CCOCC1` + NC1CCC(NC2CC2c2ccccc2)CC1 yielded a pIC50 (second compound 0.1 µM) of under 5.52, a pIC50 (second compound 0.316 µM) of under 5.52 and a pIC50 (second compound 1 µM) of under 5.52. It also gave a pIC50 (second compound 3.16 µM) of under 5.52, a pIC50 (second compound 10 µM) of 6.23 and a viability, T/C (second compound 0.1 µM, first compound 0.00949 µM) of 104%. For the same molecule, the viability, T/C (second compound 0.1 µM, first compound 0.03 µM) was 93.3%, the viability, T/C (second compound 0.1 µM, first compound 0.0949 µM) was 80.4% and the viability, T/C (second compound 0.1 µM, first compound 0.3 µM) was 74.6%. The viability, T/C (second compound 0.1 µM, first compound 0.949 µM) was 70.1%, the viability, T/C (second compound 0.1 µM, first compound 3 µM) was 59.8% and the viability, T/C (second compound 0.316 µM, first compound 0.00949 µM) was 98.4%. It also gave a viability, T/C (second compound 0.316 µM, first compound 0.03 µM) of 94%, a viability, T/C (second compound 0.316 µM, first compound 0.0949 µM) of 81.1% and a viability, T/C (second compound 0.316 µM, first compound 0.3 µM) of 73.5%. It also gave a viability, T/C (second compound 0.316 µM, first compound 0.949 µM) of 68.4%, a viability, T/C (second compound 0.316 µM, first compound 3 µM) of 59.5% and a viability, T/C (second compound 1 µM, first compound 0.00949 µM) of 95.2%. For the same molecule, the viability, T/C (second compound 1 µM, first compound 0.03 µM) was 91.1%, the viability, T/C (second compound 1 µM, first compound 0.0949 µM) was 75.1% and the viability, T/C (second compound 1 µM, first compound 0.3 µM) was 75.8%. For the same molecule, the viability, T/C (second compound 1 µM, first compound 0.949 µM) was 64%, the viability, T/C (second compound 1 µM, first compound 3 µM) was 58.4% and the viability, T/C (second compound 3.16 µM, first compound 0.00949 µM) was 78%. The viability, T/C (second compound 3.16 µM, first compound 0.03 µM) was 73.2%, the viability, T/C (second compound 3.16 µM, first compound 0.0949 µM) was 65.4% and the viability, T/C (second compound 3.16 µM, first compound 0.3 µM) was 66%. For the same molecule, the viability, T/C (second compound 3.16 µM, first compound 0.949 µM) was 60%, the viability, T/C (second compound 3.16 µM, first compound 3 µM) was 55.2% and the viability, T/C (second compound 10 µM, first compound 0.00949 µM) was 55.9%. The viability, T/C (second compound 10 µM, first compound 0.03 µM) was 61.5%, the viability, T/C (second compound 10 µM, first compound 0.0949 µM) was 54.8% and the viability, T/C (second compound 10 µM, first compound 0.3 µM) was 48.6%. For the same molecule, the viability, T/C (second compound 10 µM, first compound 0.949 µM) was 50.5% and the viability, T/C (second compound 10 µM, first compound 3 µM) was 43.5%.

Reference: PubChem BioAssay AID1918953 (Molecular Pharmacology Branch, DTP, NCI, 2023)
